Bounds are passed on as bounds.

As usually defined, the melting point is the temperature of the solid-liquid transition. On to `CN1CCN(C2=Nc3cc(Cl)ccc3N3CCc4cccc2c43)CC1`, for which the melting point fell in the range of 154 to 156 °C.

`CNc1nc(C2C(=O)Nc3ccccc32)c2cn(C3CCCC3)nc2n1` (centres undefined): the melting point is > 300 °C.

In turn, `CS(=O)(=O)c1ccc(-c2cnn(C3CCc4ccccc43)c(=O)c2-c2ccc(F)cc2)cc1` (centres undefined) displayed a melting point of 128 to 130 °C.

The compound `CC(C)Cn1c(C(=O)OC(C)(C)C)c(-c2ccccc2)c2cc(OCc3ccccc3)ccc2c1=O` registered a melting point of 138 to 139 °C.

In turn, `CCCCCCCCCCCCc1nnn(C(C(=O)Nc2c(OC)cc(OC)cc2OC)C(C)C)n1` (centres undefined) had a melting point of 135 to 137 °C.

As for `CCC(C)Nc1nc2ncnn2c2c1cnc1c2cnn1CC` (centres undefined), the melting point fell in the range of 228 to 230 °C.

Turning to `CCCCNc1ccc(CCNc2ncnc(CC)c2C(=O)OCC)cc1`, the melting point fell in the range of 65 to 66 °C.

The compound `O=C(O)C1=Cc2cc(Cl)cc(C=NO)c2OC1C(F)(F)F` (centres undefined) gave a melting point of 247 to 248 °C.

`N#Cc1cnc(N[C@H]2CC[C@H](O)CC2)c([N+](=O)[O-])c1` yielded a melting point of 157 to 158 °C.

For `CC1(C)[C@H](c2nc(-c3ccc(F)cc3)no2)CC[C@]1(C)NCC(=O)N1C[C@@H](F)C[C@H]1C#N`, the melting point fell in the range of 160 to 163 °C.

Compound `CCC1CCc2nc3c(c(N)c2C1=O)c1ccccc1n3C` (centres undefined) came in with a melting point of 129 to 131 °C.

As for `Cc1ccccc1CC(=O)N1C[C@@H]2C(=O)CCC(c3ccccc3)(c3ccccc3)[C@@H]2C1` (racemic), the melting point was determined as 196 °C.

Compound `O=C1OC(O)c2c(F)ccc(F)c21` (centres undefined) showed a melting point of 125 to 128 °C.

Compound `COc1ccc(-c2nc3sccn3c2/C=C/C(=O)c2cccs2)cc1` registered a melting point of 169 to 172 °C.

Compound `CCCCN(O)C1CC(C)(C)N(C(C)=O)C(C)(C)C1` showed a melting point of 52 to 54 °C.

For `CCOC(=O)/C=C/c1cn(-c2ccc(Cl)cn2)nc1C(C)C`, the melting point fell in the range of 105 to 106 °C.

For `O=C(NC1CCC1)c1cc(Nc2nc(Cl)nc3ccoc23)[nH]n1`, the melting point came to 277 °C.

The compound `CCOC(=O)CC1NCCN(CCc2c[nH]c3ccccc23)C1=O` (centres undefined) came in with a melting point of 80 °C.

`Cc1ccc(C)n1C(C)c1nccc(I)c1F` (centres undefined) had a melting point of 156 to 158 °C.

With `CCc1nn(-c2ccc(F)cc2)c2cc(C3=CCC(C(=O)O)CC3)ccc12` (centres undefined), the melting point was 214 to 216 °C.

For `CNc1ccccc1C(=O)n1nc(O)c2cc(N)ccc21`, the melting point fell in the range of 169 to 170 °C.

`COC(=O)c1cc(CO)cc([N+](=O)[O-])c1` yielded a melting point of 76.5 to 77.5 °C.

Consider `Cc1ccc(OC2CCN(CCc3c[nH]c4ccccc34)CC2)cc1`, for which the melting point lay within 115 to 117 °C.

Compound `CC(=O)N1CCN(CC(=O)OC2c3ccccc3C(=O)N2c2ccc3ccc(Cl)nc3n2)CC1` (centres undefined) showed a melting point of 192 °C.

The compound `CNC(=O)c1cc(-c2ccc(OC)c(F)c2)nn(CC(C)C)c1=O` returned a melting point of 153 to 155 °C.

In turn, `COC(=O)c1cccc(OC)c1S(=O)(=O)Cl` gave a melting point of 106 to 108 °C.

`O=S(=O)(c1ccc(Cl)cc1)C(c1cc(F)ccc1F)c1cc(NCCO)ncc1Cl` (centres undefined): the melting point fell in the range of 168 to 169 °C.

The compound `COc1ccc2c(c1OC)C(=O)O[C@@H]2[C@H]1c2c(c(Br)c3c(c2OC)OCO3)CCN1C` showed a melting point of 169 to 170 °C.

For `CC(C)(C)OC(=O)N1CCC(N2C(=O)OCc3ccccc32)CC1`, the melting point is 143 to 145 °C.

Regarding `CCc1oc(-c2ccc(C(F)(F)F)cc2)cc1C=O`, the melting point is 95 to 96 °C.

`CCOC(=O)c1ccc(NCCOc2ccc(Br)c3ccccc23)cc1` had a melting point of 126 to 127 °C.

`NC(CC(=O)O)c1ccc(OC(F)(F)F)cc1` (centres undefined): the melting point lay in the range of 258 to 260 °C.

For the compound `COc1ccccc1C(=O)OC1=C(c2nnc(-c3ccccc3OC)o2)N(C)S(=O)(=O)c2ccccc21`, the melting point lay within 119 to 120 °C.

`CCC(CC)N(O)C(=O)NCCCCCCCCNC(=O)N(O)C(CC)CC` registered a melting point of 89 to 90 °C.

As for `Cc1c(Cl)sc2c1c(-c1ccccc1)nc(=O)n2C`, the melting point lay in the range of 190 to 192 °C.

`CC(C)c1nc2c(N)nc(-c3ccncc3)nc2[nH]1` returned a melting point of 269 to 272 °C.

Compound `CCCC(=O)Nc1ccc(O)c(-c2ccno2)c1` displayed a melting point of 238 °C.

Compound `O=C1NCCc2c(-c3ccc(Cl)cc3)[nH]c3cccc1c23` showed a melting point of 250 to 252 °C.

Regarding `O=C(Nc1ccccc1O)c1nnn[nH]1`, the melting point is 220 to 223 °C.

Consider `CCOC(=O)C=Cc1ccc(C(=O)Nc2ccc3c(c2)C(C)(C)CCC3(C)C)cc1`, for which the melting point is 166 °C.

Take `COc1c(NC(=O)c2ccc(C)c(-n3cc(C(=O)Cl)nn3)c2)cc(C(C)(C)C)cc1NS(C)(=O)=O`: the melting point was in the range of 205 to 207 °C.

In turn, `COC(=O)c1ncc(-c2ccccc2)nc1N` gave a melting point of 228 °C.

With `CCOc1ccc(-c2ccc3c(c2)C=C(C(=O)Nc2ccc(CN(C)C4CCOCC4)cc2)CCN3C)cc1`, the melting point is 150 to 152 °C.

On to `COc1ccccc1NC(=O)NCc1nnc(C)n1-c1sc(C)c(C)c1C(=O)c1ccc(Cl)cc1`, for which the melting point lay within 228 to 230 °C.

Turning to `OC1CSC(Oc2cc(-c3cncnc3)cnc2Cl)C(O)C1O` (centres undefined), the melting point was 174 to 189 °C.

As to `Cc1cccc(C)c1C(=O)Nc1ccc(OCCN2CCOCC2)cc1`, the melting point was in the range of 177 to 190 °C.

As to `Cc1ccc(NS(=O)(=O)c2cc(S(=O)(=O)Nc3ccc(C)cc3C)c3cc(O)ccc3c2)c(C)c1`, the melting point lay in the range of 116 to 118 °C.

Consider `COc1ccc2c(c1OC)C(=O)c1ccccc1-2`, for which the melting point fell in the range of 110 to 111 °C.

Regarding `COc1ccc2c(c1)C(CCNC(C)=O)C1(CC2)Cc2ccccc2C1` (centres undefined), the melting point was 139 to 141 °C.

`Cc1cc(=S)c(OCC(=O)O)co1` showed a melting point of 120 to 125 °C.

`Cc1ccc(C(=O)Nc2c(NC(=O)CN3CCOCC3)ccc3c2C(=O)c2ccccc2C3=O)cc1` came in with a melting point of 225 to 226 °C.

For `Cc1nn(C)c(C)c1N1CCN(c2c(C)c(C)c3c(c2C)CC(C)(C)O3)CC1`, the melting point was 162 to 164 °C.

The compound `O=C(O)C(O)=CC(=O)c1cc(Cc2ccc(F)cc2)cn(Cc2ccccc2F)c1=O` came in with a melting point of 182 to 184 °C.

Compound `CC(=O)N(C)CC(c1ccc(Cl)cc1)c1ccc(Cl)cc1` came in with a melting point of 103 to 104 °C.

`C#CCSc1nn(C(=O)NS(=O)(=O)c2c(C)csc2C(=O)OCC)c(=O)n1C` showed a melting point of 175 °C.

`CCCCCCCCCCC(Oc1ccc(C2=CCCCCCC2)cc1)C(=O)O` (centres undefined): the melting point fell in the range of 45 to 48 °C.

`O=C(O)c1ccc2c(=O)n(CCCCN3CC=C(c4ccccc4)CC3)c(=O)[nH]c2c1` came in with a melting point of 296 to 305 °C.

For `O=C(Nc1ccc(F)cc1)c1ccccc1Cl`, the melting point was 93.3 to 96.2 °C.

`CCOC(=O)c1cc(=O)c(O)c(-c2ccc(O)cc2)o1` showed a melting point of 228 to 232 °C.

`CC(C)(C)OC(=O)NCC1=C(CC(=O)O)CC=CC1` registered a melting point of 183 °C.

Turning to `N#Cc1ccc(-c2ccc(OS(N)(=O)=O)cc2)cc1Cn1cncn1`, the melting point was in the range of 179 to 180 °C.

`CC(=O)NC[C@@H]1C[C@H]1c1cccn2nc(C)cc12` (relative stereo) displayed a melting point of 100 to 101 °C.

As for `O=C(CCl)Nc1ccc2ncnc(Nc3cccc(I)c3)c2c1`, the melting point was > 300 °C.

`CC(=O)c1ccc(Br)cn1` came in with a melting point of 112 °C.

For `COC(=O)c1ccc(OCCCN(C(=O)c2ccc(C(C)(C)C)cc2)c2ccc(Cl)cc2)cc1`, the melting point was 201 to 203 °C.

`CCc1c(C(=O)OC)ncc2[nH]c3cc(OC)c(OC)cc3c12`: the melting point was in the range of 207 to 209 °C.

The compound `CCOc1ccccc1O[C@@H](c1ccccc1)[C@@H](CO[Si](C)(C)C)OS(C)(=O)=O` (racemic) gave a melting point of 80 to 82.5 °C.

On to `NS(=O)(=O)c1ccccc1CN1CCCC1=O`, for which the melting point lay in the range of 149 to 151 °C.

In turn, `CCN(CC)CC1CCCN(CCNC(=O)N2c3ccccc3C(=O)Nc3cccnc32)C1` (centres undefined) registered a melting point of 184 to 185 °C.

The compound `CCOC(=O)c1cn(CC)c2cc(-c3cc(C)no3)ccc2c1=O` had a melting point of 180 to 185 °C.

`COC(=O)NC(CCc1ccc(Br)cc1)C(=O)O` (centres undefined) had a melting point of 136 to 137 °C.

In the case of `CCC(C)(C)CNc1c(N=O)c(C)nn1C`, the melting point lay in the range of 45 to 50 °C.

In turn, `COCOc1c(-c2ccc(C(=O)O)cc2)cccc1-c1ccc2c(c1)C(C)(C)CCC2(C)C` yielded a melting point of 74 °C.

In the case of `Cc1cc(-c2cc(C(F)(F)F)n3ncc(C(=O)Nc4nc(C)c(S(N)(=O)=O)s4)c3n2)ccc1C(F)(F)F`, the melting point worked out at 309 °C.

For the compound `N#CCc1cccc2c(-c3ccc(Br)cc3)nccc12`, the melting point is 122 °C.

Take `CCCCCCCCCCCCC1=C(O)C(=O)NC1=O`: the melting point fell in the range of 108 to 109 °C.

Compound `CCCc1ccc(-c2ncc(C#N)c(Cl)n2)cc1` registered a melting point of 109 to 110 °C.

As for `CCCC[C@H](NC(=O)[C@H](CC(C)C)NC(=O)c1cc(F)ccc1F)C(=O)CSCc1ccco1`, the melting point came out at 102 °C.

`Cc1ccn(-c2ccc(C=O)cc2)n1` came in with a melting point of 96 to 98 °C.

In the case of `COc1cc(-c2ncc(C(F)(F)F)cc2OC)ccc1Cl`, the melting point fell in the range of 62 to 63 °C.

The compound `CNC(=O)c1ccccc1Nc1nc(Nc2ccc3c(c2)CCC(NCC(F)(F)F)CC3)ncc1Cl` (centres undefined) came in with a melting point of 202 to 203 °C.

As for `CCCOC(OCCC)P(=O)(O)CCCN`, the melting point lay within 223 to 225 °C.

Compound `CCCCCCN(C(=O)Nc1ccc(C(=O)O)cc1)c1ccc2c(c1)C(C)(C)CCC2(C)C` gave a melting point of 177 °C.

Consider `COc1ccccc1-n1c(=O)[nH]c2c(C(N)=O)nc(-c3cccc(C#N)c3)nc21`, for which the melting point was 316 to 318 °C.

Regarding `CCCOc1cc(C(=O)CCC(=O)O)ccc1OCC`, the melting point fell in the range of 116 to 117 °C.

Compound `CCn1cnc2c(Nc3cccc(F)c3)nc(NCCO)nc21` registered a melting point of 184 °C.

The compound `Cc1cc(-c2nc3c(C)ccnn3c2-c2ccnc(NC(=O)c3ccc(F)cc3)c2)ccc1F` came in with a melting point of 243 to 244 °C.

In turn, `COc1ccc(CCNC2CCCc3c2ccc(=O)n3C)cc1` (centres undefined) gave a melting point of 97 to 99 °C.

In the case of `CC1(CCN)OCCc2c1[nH]c1ccccc21` (centres undefined), the melting point lay in the range of 80 to 84 °C.

These data come from a melting point compilation (Tetko et al.; mined from patent text by program, amines drawn as free bases though some values may be those of a salt).
